Patent US12662491B2 (Redona Therapeutics, Inc., priority 2020, dated 2026)
Like-named read-outs stand apart in the source and are kept apart here.

Target: T1, Zcchc11 enzyme (Homo sapiens, UniProt Q5TAX3)
T1 construct: made in house; host or cells: HEK293 cells (Zcchc11); E. coli Rosetta II (LIN28A)
T1 sequence (Q5TAX3 212-1420): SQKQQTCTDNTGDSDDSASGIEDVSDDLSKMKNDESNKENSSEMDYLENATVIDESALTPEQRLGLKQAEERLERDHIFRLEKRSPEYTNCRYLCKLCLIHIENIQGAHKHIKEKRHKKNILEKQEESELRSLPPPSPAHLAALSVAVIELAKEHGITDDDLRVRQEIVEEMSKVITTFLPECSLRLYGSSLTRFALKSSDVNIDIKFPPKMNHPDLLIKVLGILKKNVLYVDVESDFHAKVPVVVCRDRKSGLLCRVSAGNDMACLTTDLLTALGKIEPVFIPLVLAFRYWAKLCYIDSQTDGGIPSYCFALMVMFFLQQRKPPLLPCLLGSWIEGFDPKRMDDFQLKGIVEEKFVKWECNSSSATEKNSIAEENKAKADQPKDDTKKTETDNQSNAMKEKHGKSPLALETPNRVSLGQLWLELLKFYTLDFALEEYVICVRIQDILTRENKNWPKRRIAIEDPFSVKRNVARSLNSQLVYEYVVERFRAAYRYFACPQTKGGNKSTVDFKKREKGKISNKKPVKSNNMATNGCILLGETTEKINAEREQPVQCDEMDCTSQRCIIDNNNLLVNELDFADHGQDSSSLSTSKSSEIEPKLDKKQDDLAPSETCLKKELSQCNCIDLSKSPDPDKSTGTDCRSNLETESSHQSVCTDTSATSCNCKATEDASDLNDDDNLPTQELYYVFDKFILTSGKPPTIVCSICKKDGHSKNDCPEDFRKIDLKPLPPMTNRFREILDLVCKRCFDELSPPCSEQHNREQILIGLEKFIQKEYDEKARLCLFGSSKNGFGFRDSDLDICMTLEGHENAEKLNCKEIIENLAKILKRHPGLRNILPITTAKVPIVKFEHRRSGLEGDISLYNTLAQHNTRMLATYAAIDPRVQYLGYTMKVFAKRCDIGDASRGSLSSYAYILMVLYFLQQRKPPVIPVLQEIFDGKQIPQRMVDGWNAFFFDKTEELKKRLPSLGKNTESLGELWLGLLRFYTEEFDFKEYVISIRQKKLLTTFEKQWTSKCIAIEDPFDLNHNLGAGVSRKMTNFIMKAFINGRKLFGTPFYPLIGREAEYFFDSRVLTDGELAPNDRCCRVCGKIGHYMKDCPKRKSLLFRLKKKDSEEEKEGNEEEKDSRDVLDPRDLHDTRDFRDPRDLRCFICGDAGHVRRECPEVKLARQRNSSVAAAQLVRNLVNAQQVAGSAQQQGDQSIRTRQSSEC
Experiment: TUTase assay (Zcchc11 assay, Lin28a-dependent polyuridylation of pre-let-7)
Type: biochemical
Conditions: read-out: Potency Lin28a-dep Z11 IC50
Procedure, shortened: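 Human Zcchc11 residues 212-1420 (HEK293-expressed, MBP tag cleaved, C-terminal FLAG) at 0.2 nM, with 10 nM full-length human LIN28A and 2 nM 5′-fluorescein pre-let-7, preincubated with compound 30 min at room temperature. Reaction started with 5 uM UTP plus 4 nM 3′-rhodamine A20 quench probe; fluorescein loss read kinetically, IC50 from initial rates.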

[1] = Lin28a-dependent Zcchc11 (Z11) TUTase assay
[2] = Lin28a-dependent Zcchc11 (Z11) TUTase activity
[3] = LIN28A 10 nM, Zcchc11 0.2 nM, 5′-fluorescein pre-let-7 miRNA 2 nM, UTP 5 uM, room temperature, 30 minutes pre-incubation

Structure (SMILES) | IC50 [1] [nM] | IC50 [2] [nM] | also measured
CC1C[C@H](COc2ncccc2Cl)N(c2cc3c(cc2Cl)c(=O)c(C(=O)O)cn3-c2ccc(N3CC(N(C)C)C3)nc2)C1 (stereo partly drawn) [Compound 296, 6-chloro-7-((2R)-2-(((3-chloropyridin-2-yl)oxy)methyl)-4-methyl-pyrrolidin-1-yl)-1-(6-(3-(dimethyl-amino)azetidin-1-yl)pyridin-3-yl)-4-oxo-1,4-dihydro-quinoline-3-carboxylic acid] | – | ≤ 1000 | –
O=C(O)c1cn(-c2ccc(O)cc2F)c2cc(N3CCC[C@@H]3COc3cccnn3)c(F)cc2c1=O [Compound 135, (R)-6-fluoro-1-(2-fluoro-4-hydroxy-phenyl)-4-oxo-7-(2-((pyridazin-3-yloxy)methyl)pyrrolidin-1-yl)-1,4-dihydro-quinoline-3-carboxylic acid] | – | ≤ 1000 | –
COc1ccc(Cl)c(OCC2N(c3cc4c(cc3Cl)c(=O)c(C(=O)O)cn4-c3ccc(N4CC(N(C)C)C4)nc3)CCC2(C)C)n1 (stereo not shown) [Compound 257, 6-chloro-7-(2-{[(3-chloro-6-methoxy-pyridin-2-yl)oxy]methyl}-3,3-dimethyl-pyrrolidin-1-yl)-1-{6-[3-(dimethyl-amino)azetidin-1 yl]pyridin-3-yl}-4-oxoquinoline-3-carboxylic acid] | – | ≤ 1000 | –
CN(C)C(=O)OC[C@H]1CCCN1c1cc2c(cc1Cl)c(=O)c(C(=O)O)cn2-c1ccc(N2CC(N(C)C)C2)nc1 [Example 49, 6-chloro-1-[6-[3-(dimethylamino)azetidin-1-yl]pyridin-3-yl]-7-[(2R)-2-[[(dimethylcarbamoyl)oxy]methyl]pyrrolidin-1-yl]-4-oxoquinoline-3-carboxylic acid] | – | – | IC50 [3]: ≤ 1000 nM
Cc1cccnc1OC[C@H]1CCCN1c1cc2c(cc1F)c(=O)c(C(=O)O)cn2-c1ccc(O)cc1F [Compound 101, (R)-6-fluoro-1-(2-fluoro-4-hydroxy-phenyl)-7-(2-(((3-methyl-pyridin-2-yl)oxy)methyl)pyrrolidin-1-yl)-4-oxo-1,4-dihydro-quinoline-3-carboxylic acid] | – | ≤ 1000 | –
CN(C)C1CN(c2cnc(-n3cc(C(=O)O)c(=O)c4cc(C#N)c(N5CCC[C@@H]5COc5ncccc5Cl)nc43)cn2)C1 [Compound 280, (R)-7-(2-(((3-chloropyridin-2-yl)oxy)methyl)pyrrolidin-1-yl)-6-cyano-1-(5-(3-(dimethyl-amino)azetidin-1-yl)pyrazin-2-yl)-4-oxo-1,4-dihydro-1,8-naphthyridine-3-carboxylic acid] | – | ≤ 1000 | –
N#Cc1cc2c(=O)c(C(=O)O)cn(-c3cnc(N4CCC4)cn3)c2nc1N1CCC[C@@H]1COc1ncccc1F (racemic) [Compound 194, rac-(R)-1-(5-(azetidin-1-yl)pyrazin-2-yl)-6-cyano-7-(2-(((3-fluoropyridin-2-yl)oxy)methyl)pyrrolidin-1-yl)-4-oxo-1,4-dihydro-1,8-naphthyridine-3-carboxylic acid] | – | ≤ 1000 | –
Cc1cccnc1OC[C@H]1CCCN1c1cc2c(cc1F)c(=O)c(C(=O)O)cn2C1CCOCC1 [Example 14, 6-fluoro-7-[(2R)-2-[[(3-methylpyridin-2-yl)oxy]methyl]pyrrolidin-1-yl]-1-(oxan-4-yl)-4-oxoquinoline-3-carboxylic acid] | – | – | IC50 [3]: ≤ 1000 nM
CN(C)c1ccc(Cl)c(OC[C@H]2C[C@H]3C[C@H]3N2c2cc3c(cc2F)c(=O)c(C(=O)O)cn3-c2ccc(N3CC(N(C)C)C3)nc2)n1 [Compound 338, 7-[(1R,3R,5R)-3-({[3-chloro-6-(dimethyl-amino)pyridin-2-yl]oxy}methyl)-2-azabicyclo [3.1.0]hexan-2-yl]-1-{6-[3-(dimethyl-amino)azetidin-1-yl]pyridin-3-yl}-6-fluoro-4-oxoquinoline-3-carboxylic acid] | – | ≤ 1000 | –
O=C(O)c1cn(-c2ccccc2)c2c(F)c(N3CCC[C@@H]3COc3ccccn3)c(F)cc2c1=O [Compound 86, (R)-6,8-difluoro-4-oxo-1-phenyl-7-(2-((pyridin-2-yloxy)methyl)pyrrolidin-1-yl)-1,4-dihydro-quinoline-3-carboxylic acid] | – | ≤ 1000 | –
Cc1cc(-n2cc(C(=O)O)c(=O)c3cc(F)c(N4CCC[C@@H]4COc4ccccn4)cc32)ccc1O [Example 395, (R)-6-fluoro-1-(4-hydroxy-3-methylphenyl)-4-oxo-7-(2-((pyridin-2-yloxy)methyl)pyrrolidin-1-yl)-1,4-dihydroquinoline-3-carboxylic acid] | 1000 to 10000 | – | –
O=C(O)c1cn(-c2ccc(NS(=O)(=O)C3CC3)cc2)c2cc(N3CCC[C@@H]3COc3ncccc3Cl)c(Cl)cc2c1=O [Example 472, 6-chloro-7-[(2R)-2-{[(3-chloropyridin-2-yl)oxy)methyl}pyrrolidin-1-yl]-1-(4-cyclopropane-sulfonamido-phenyl)-4-oxo-1,4-dihydroquinoline-3-carboxylic acid] | ≤ 1000 | – | –

Continued, in another order:

IC50 [1] [nM] | IC50 [2] [nM] | Structure (SMILES) | also measured
≤ 1000 | – | CN(C)C1CN(c2ccc(-n3cc(C(=O)O)c(=O)c4cc(Cl)c(N5C6CC6C[C@@H]5COc5ncccc5Cl)cc43)cn2)C1 (stereo partly drawn) [Example 628, 6-chloro-7-((3R)-3-(((3-chloropyridin-2-yl)oxy)methyl)-2-azabicyclo[3.1.0]hexan-2-yl)-1-(6-(3-(dimethylamino)azetidin-1-yl)pyridin-3-yl)-4-oxo-1,4-dihydroquinoline-3-carboxylic acid] | –
≤ 1000 | – | O=C(O)c1cn(-c2cccnc2)c2cc(N3CCC[C@@H]3COc3ncccc3Cl)c(Cl)cc2c1=O [Example 489, (R)-6-chloro-7-(2-(((3-chloropyridin-2-yl)oxy)methyl)pyrrolidin-1-yl)-4-oxo-1-(pyridin-3-yl)-1,4-dihydroquinoline-3-carboxylic acid] | –
≤ 1000 | – | O=C(O)c1cn(-c2c[nH]cn2)c2cc(N3CCC[C@@H]3COc3ncccc3Cl)c(Cl)cc2c1=O [Example 565, (R)-6-chloro-7-(2-(((3-chloropyridin-2-yl)oxy)methyl)pyrrolidin-1-yl)-1-(1H-imidazol-4-yl)-4-oxo-1,4-dihydroquinoline-3-carboxylic acid] | –
≤ 1000 | – | CN(C)C1CN(c2cc(-n3cc(C(=O)O)c(=O)c4cc(Cl)c(N5CCC[C@@H]5COc5ncccc5Cl)cc43)ccn2)C1 [Example 548, (R)-6-chloro-7-(2-(((3-chloropyridin-2-yl)oxy)methyl)pyrrolidin-1-yl)-1-(2-(3-(dimethylamino)azetidin-1-yl)pyridin-4-yl)-4-oxo-1,4-dihydroquinoline-3-carboxylic acid] | –
≤ 1000 | – | O=C(O)c1cn(-c2cnccn2)c2cc(N3CCC[C@@H]3COc3ncccc3Cl)c(Br)cc2c1=O [Example 511, (R)-6-bromo-7-(2-(((3-chloropyridin-2-yl)oxy)methyl)pyrrolidin-1-yl)-4-oxo-1-(pyrazin-2-yl)-1,4-dihydroquinoline-3-carboxylic acid] | –
1000 to 10000 | – | CN(C)C1CN(c2ncc(-n3cc(C(=O)O)c(=O)c4cc(Cl)c(N5CCC[C@]5(C)COc5ncccc5Cl)nc43)cn2)C1 [Example 622, (R)-6-chloro-7-(2-(((3-chloropyridin-2-yl)oxy)methyl)-2-methylpyrrolidin-1-yl)-1-(2-(3-(dimethylamino)azetidin-1-yl)pyrimidin-5-yl)-4-oxo-1,4-dihydro-1,8-naphthyridine-3-carboxylic acid] | –
1000 to 10000 | – | Nc1ccc(Cn2cc(C(=O)O)c(=O)c3cc(Cl)c(N4CCC[C@@H]4COc4ncccc4Cl)cc32)cn1 [Example 585, (R)-1-((6-aminopyridin-3-yl)methyl)-6-chloro-7-(2-(((3-chloropyridin-2-yl)oxy)methyl)pyrrolidin-1-yl)-4-oxo-1,4-dihydroquinoline-3-carboxylic acid] | –
